Data from patent publication US9820497B2, “Astaxanthin-containing pet foods” (FUJI CHEMICAL INDUSTRY CO., LTD, priority 2003, dated 2017).

Key:
[1] = Feces odor test (odor tester KALMOR-Σ) before and after administration; assay type: in vivo, dog; details: four dogs, 4 weeks of administration; conclusion from Table 3
Description: (§1) Four dogs were fed only with the same commercially available dog food for 3 months or more, and thereafter, two AstaReal tablets (manufactured by Natureal Corporation, containing 0.67 mg of free astaxanthin per tablet in terms of free astaxanthin) per day were given to the dogs at dinner for 4 weeks. […] The feces discharged before and after administration of astaxanthin were collected. Samples were prepared each by taking a piece from the top portion, middle portion and end portion in the same amount and mixing these pieces. The samples were placed in a shielded vessel of 100 ml in volume and kept in dark and used in tests within 24 hours.
Odor of the samples was measured by an odor tester (KALMOR-Σ, manufactured by Kalmor Co.) in a room maintained at 22° C. To explain more specifically, the odor of an airtight vinyl bag of 280 mm×200 mm containing no sample was measured as an initial value by inserting a test probe. Then, 100 mg of sample was weighed, placed in the vinyl bag and stand still for 15 minutes. The odor of the vinyl bag having the sample placed therein was measured (measured value). The value of the odor was obtained by subtracting the initial value from the measured value.

dogs = test: Health conditions of the dogs before and during administration; assay type: in vivo, dog; details: four dogs, before and during the 4 weeks of administration
Description: as §1

[2] = as high as β-carotene; cited from earlier work
[3] = known; cited from earlier work

## CC1=C(/C=C/C(C)=C/C=C/C(C)=C/C=C/C=C(C)/C=C/C=C(C)/C=C/C2=C(C)C(=O)C(O)CC2(C)C)C(C)(C)CC(O)C1=O (stereo not drawn) [astaxanthin, 3,3′-dihydroxy-β,β-carotene-4,4′-dione]
[1]
  odor of the excrement: clearly is decreased
dogs
  health conditions (diarrhea, fatigue): healthy conditions without exhibiting diarrhea and fatigue
[2]
  antioxidative action relative to β-carotene: about 40 times
[3]
  mutagenicity: no mutagenicity is observed
